Experimental data as given in PMC7069095, “A cell-permeable peptide-based PROTAC against the oncoprotein CREPT proficiently inhibits pancreatic cancer” (Theranostics, 2020).
Non-standard residues stand in square brackets, D forms with d. Residues, ends and D or L forms follow the SMILES beside them. Hyp = O=C(O)[C@@H]1C[C@@H](O)CN1; Ahx = NCCCCCC(=O)O

Key:
[1] = target: T1, endogenous CREPT protein in AsPc-1 cells (Homo sapiens, UniProt Q9NQG5); experiment: Western blot of endogenous CREPT (degradation); type: cell-based; details: 24 h incubation
T1 construct: endogenous protein level of CREPT in Panc-1, AsPc-1 and MIA-PaCa-2 cells; endogenous in cells; host or cells: Panc-1, AsPc-1, MIA PaCa-2
T1 sequence (Q9NQG5 1-326): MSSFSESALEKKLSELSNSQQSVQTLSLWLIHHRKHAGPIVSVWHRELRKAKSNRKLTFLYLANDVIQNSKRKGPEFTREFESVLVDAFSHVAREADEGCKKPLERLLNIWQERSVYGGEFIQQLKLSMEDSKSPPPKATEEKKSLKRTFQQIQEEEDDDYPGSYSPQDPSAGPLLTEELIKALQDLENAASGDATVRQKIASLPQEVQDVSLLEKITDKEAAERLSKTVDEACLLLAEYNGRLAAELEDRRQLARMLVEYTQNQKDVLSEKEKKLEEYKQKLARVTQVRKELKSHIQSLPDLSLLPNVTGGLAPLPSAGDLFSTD
Protocol: (§1) For exogenous immunoprecipitation assays, HEK293T cells were plated in 60 mm dishes and then transfected with the indicated plasmids. After 24 h, cells were harvested using RIPA buffer (50 mM Tris-HCl pH 8.0, 2 mM EDTA pH 8.0, 150 mM NaCl, 1% NP-40, 0.5% sodium deoxycholate, 0.1% SDS) with mixed protease inhibitors. Cell lysates were incubated with 2 μg of the indicated antibodies and 30 μL of protein A/G-Sepharose beads at 4 °C overnight. Beads were eluted five times with lysis buffer (50 mM Tris-HCl pH 7.6, 1 mM EDTA pH 8.0, 165 mM NaCl, 0.5% NP-40), and thereafter, a western blot assay was performed to analyze the association by using the indicated antibodies. Western blot was performed as previously reported. Anti-β-actin and anti-Flag antibodies were purchased from Sigma. Anti-Myc antibody was purchased from Santa Cruz Biotechnology. Antibody against CREPT was produced in the laboratory.
(§2) To address whether PRTC could induce CREPT degradation, we examined the endogenous protein level of CREPT in Panc-1, AsPc-1 and MIA-PaCa-2 cells in the presence of different dosages of PRTC. […] Consistently, treatment with PRTC led to decreases in CREPT protein at different times (Figure 5B, S3A). […] To further visualize the degradation process, we stained the endogenous CREPT protein with an antibody against CREPT in the cells treated with FITC-labeled PRTC.
Figure S3. PRTC induces CREPT degradation. […]

[2] = Circular dichroism (CD) spectroscopy; type: physicochemical; details: 0.1 mg/mL in deionized water, room temperature
Protocol: All peptides were dissolved in the deionized water at a final concentration of 0.1 mg/mL. The CD spectra were measured by using a 1 nm bandwidth with a 1 nm step resolution from 190 to 260 nm at room temperature (Jasco spectropolarimeter, Japan). Final spectra were obtained from the average of three parallel scans after subtracting a spectrum of deionized water recorded under the same conditions. Each sample was scanned thrice and the averaged spectrum was smoothed. The helicity were calculated by CDNN 2.1 [59], [60].

Panc-1 cells [3] = experiment: Colony formation; type: cell-based; details: 500 cells per well, 10 days, than the control cells
Protocol: Cells were seeded into 6-well plates (500 cells per well) and cultured for 10 days, then washed with PBS and stained with 0.1% crystal violet. The number of colonies was counted by ImageJ and presented as the mean ± standard deviation (SD) from three individual experiments.

Panc-1 cells [4] = experiment: Confocal fluorescence imaging of FITC labeled peptides in cells; type: cell-based; details: flow cytometry and confocal imaging of FITC-labeled PRTC; Panc-1, AsPc-1, MIA PaCa-2 cells
Protocol: To examine whether PRTC could permeate into pancreatic cancer cells, we synthesized fluorescein isothiocyanate (FITC) labeled PRTC, PRTC-m, PRTC-v, PRTC-r (PRTC without RRRRK) as well as TAT (a widely used cell penetrating peptide, as a positive control).
Figure 3 Identification of the permeability of PRTC in Panc-1 cells. (A) Entry of FITC- labeled peptides into Panc-1 cells tested by flow cytometry. FITC-TAT is the positive control. Measurements were performed in triplicate. (B) Quantification of cellular uptake of Panc-1 cells treated with different concentrations of FITC-PRTC. (C) Confocal microscope images of Panc-1 cells treated with 10 μM FITC labeled peptides. Scale bars, 10 μm. (D) Confocal microscope images of Panc-1 cells treated with different dosages of FITC-PRTC. Scale bars, 10 μm.

[5] = target: T2, endogenous CREPT protein in Panc-1 cells (Homo sapiens, UniProt Q9NQG5); experiment: Western blot of endogenous CREPT (degradation); type: cell-based
T2 construct: endogenous protein level of CREPT in Panc-1, AsPc-1 and MIA-PaCa-2 cells; endogenous in cells; host or cells: Panc-1, AsPc-1, MIA PaCa-2
T2 sequence (Q9NQG5 1-326): T1 sequence (Q9NQG5 1-326)
Protocol: as §1, §2
Figure 5 PRTC induces the ubiquitination and proteasome- dependent degradation of the endogenous CREPT protein. (A) Immunoblot of CREPT following 24 h incubation with different dosages of PRTC or PRTC-m in Panc-1 cells. (B) Immunoblot of CREPT exposed to 10 μM PRTC or PRTC-m for different times in Panc-1 cells. (C) Western blot analysis of CREPT following 24 h incubation with 10 μM PTRC in Panc-1 cells. MG132 is an inhibitor of proteasome activity. (D) Immunofluorescence visualization of Panc-1 cells after treatment with PRTC for 24 h. Cells were stained with anti-CREPT antibody. Scale bars, 20 μm.

Panc-1 cells [6] = experiment: Wound healing; type: cell-based; details: 10 μM for 24 h, FBS-free DMEM
Protocol: Cells were seeded in 6-well plates. Monolayer cells were scratched after culturing to obtain at least 95% confluence. Cells were washed with PBS and maintained in FBS-free DMEM and then treated with 10 μM PRTC and PRTC-m for 24 h. Migration distance was observed by microscopy and was measured by ImageJ from three individual experiments.

CC[C@H](C)[C@H](N)C(=O)N[C@@H](Cc1ccc(O)cc1)C(=O)N1C[C@H](O)C[C@H]1C(=O)N[C@@H](C)C(=O)N[C@@H](CC(C)C)C(=O)NCCCCCC(=O)N[C@@H](CCCCN)C(=O)N[C@@H](CC(=O)O)C(=O)N[C@H](C(=O)N[C@@H](CC(C)C)C(=O)N[C@@H](CO)C(=O)N[C@@H](CCC(=O)O)C(=O)N[C@@H](CCCCN)C(=O)N[C@@H](CCC(=O)O)C(=O)N[C@@H](CCCCN)C(=O)N[C@@H](CCCCN)C(=O)N[C@@H](CC(C)C)C(=O)N[C@@H](CCC(=O)O)C(=O)N[C@@H](CCC(=O)O)C(=O)N[C@@H](Cc1ccc(O)cc1)C(=O)N[C@@H](CCCCN)C(=O)N[C@@H](CCC(N)=O)C(=O)N[C@@H](CCCCN)C(=O)N[C@@H](CC(C)C)C(=O)N[C@@H](C)C(=O)N[C@@H](CCCNC(=N)N)C(=O)N[C@H](C(=O)N[C@@H](CCCNC(=N)N)C(=O)N[C@@H](CCCNC(=N)N)C(=O)N[C@@H](CCCNC(=N)N)C(=O)N[C@@H](CCCNC(=N)N)C(=O)N[C@@H](CCCCN)C(=O)O)C(C)C)C(C)C [PRTC] (H-IY[Hyp]AL[Ahx]KDVLSEKEKKLEEYKQKLARVRRRRK-OH; N-terminus and C-terminus assumed)
CREPT protein level upon different dosages [1]: dramatically decreased
secondary structure by CD spectrum [2]: α-helix structure
Helicity ([2]; 190 to 260 nm, average of three scans, calculated by CDNN 2.1): 50.1%
colony formation (Panc-1 cells [3]): fewer colonies
time to permeate into pancreatic cancer cells (Panc-1 cells [4]): ≤ 2 h
CREPT protein level at different times ([5]; 10 μM or 20 μM peptide): decreases
CREPT protein level upon different dosages ([5]; 24 h incubation): dramatically decreased
cell movement (wound healing) (Panc-1 cells [6]): decreased cell movement
